Earlier results on 1 molecule are cited in patent publication US6596714B1, “Parasiticidal formulation for animals and a method of making this formulation” (Phoenix Scientific, Inc., priority 2000, dated 2003).

The series relates to cestode infestations.

Take `CN1CCCN=C1/C=C/c1cccs1` [pyrantel pamoate]: the “Effectiveness in treating cestode infestations” value (about three times the label recommended dosage, about 19.8 milligrams per kilogram of animal) is on record as “about 100%”. The “Average efficacy against cestode infestations” value (label dosage of about 6.6 milligrams per kilogram of animal, paste formulations, average) is “about 85%”.
